The NIST ThermoML archive (doi:10.1016/j.jct.2016.07.020)

Assay: mn = molality of the nth substance listed, in mol/kg
Details: 101.3 kPa, Liquid, Capillary tube (Ostwald / Ubbelohde) method

O=C[C@H](O)[C@@H](O)[C@@H](O)[C@H](O)CO [(+)-galactose] + O
viscosity [mPa·s]
Details | m1 = 0.0402 | m1 = 0.0601 | m1 = 0.0792 | m1 = 0.0992 | m1 = 0.1199 | m1 = 0.139 | m1 = 0.1594 | m1 = 0.1793
288.15 K | 1.158 | 1.168 | 1.179 | 1.19 | 1.203 | 1.214 | 1.224 | 1.237
298.15 K | 0.905 | 0.913 | 0.92 | 0.929 | 0.938 | 0.945 | 0.953 | 0.961
308.15 K | – | 0.737 | 0.743 | 0.749 | 0.755 | 0.76 | 0.766 | 0.773
318.15 K | 0.606 | 0.611 | 0.615 | 0.618 | 0.624 | 0.626 | 0.631 | 0.635

O=C[C@H](O)[C@@H](O)[C@H](O)CO [D-xylose] + O
viscosity [mPa·s]
Details | m1 = 0.0399 | m1 = 0.0601 | m1 = 0.0797 | m1 = 0.0993 | m1 = 0.1195 | m1 = 0.1391 | m1 = 0.1583 | m1 = 0.1783
288.15 K | 1.155 | 1.163 | 1.173 | 1.181 | 1.188 | 1.197 | 1.206 | 1.214
298.15 K | 0.901 | 0.909 | 0.914 | 0.92 | 0.927 | 0.932 | 0.937 | 0.944
308.15 K | 0.727 | 0.733 | 0.739 | 0.742 | 0.747 | 0.751 | 0.756 | 0.762
318.15 K | 0.603 | 0.607 | 0.61 | 0.614 | 0.618 | 0.623 | 0.626 | 0.63

O=C[C@H](O)[C@@H](O)[C@H](O)[C@H](O)CO [D-glucose] + O
viscosity [mPa·s]
Details | m1 = 0.04 | m1 = 0.0599 | m1 = 0.0797 | m1 = 0.0999 | m1 = 0.1197 | m1 = 0.14 | m1 = 0.1598 | m1 = 0.1797
288.15 K | 1.161 | – | 1.181 | 1.193 | 1.204 | 1.216 | 1.227 | 1.241
298.15 K | 0.907 | 0.915 | 0.924 | 0.932 | 0.94 | 0.947 | 0.954 | 0.961
308.15 K | 0.733 | 0.737 | 0.744 | 0.751 | 0.756 | 0.762 | 0.768 | 0.774
318.15 K | 0.606 | 0.61 | 0.614 | 0.62 | 0.624 | 0.629 | 0.636 | 0.64

O=C1O[C@H]([C@@H](O)CO)C(O)=C1O [L-ascorbic acid] + O
viscosity [mPa·s]
Details | 288.15 K | 298.15 K | 308.15 K | 318.15 K
m1 = 0.05 | 1.163 | 0.91 | 0.732 | 0.605
m1 = 0.15 | 1.21 | 0.944 | 0.759 | 0.625
m1 = 0.25 | 1.257 | 0.979 | 0.787 | 0.646
m1 = 0.35 | 1.305 | 1.017 | 0.813 | 0.669

OC[C@@H](O)[C@H](O)[C@@H](O)CO [xylitol] + O
viscosity [mPa·s]
Details | m1 = 0.0399 | m1 = 0.0599 | m1 = 0.08 | m1 = 0.0999 | m1 = 0.1196 | m1 = 0.1396 | m1 = 0.1593 | m1 = 0.1801
288.15 K | 1.16 | 1.17 | 1.179 | 1.188 | 1.197 | 1.206 | 1.214 | 1.223
298.15 K | 0.905 | 0.913 | 0.919 | 0.926 | 0.933 | 0.939 | 0.947 | 0.954
308.15 K | 0.73 | 0.736 | 0.742 | 0.746 | 0.751 | 0.757 | 0.762 | 0.766
318.15 K | 0.604 | 0.608 | 0.612 | 0.616 | 0.621 | 0.625 | 0.63 | 0.634

CO[C@H]1O[C@H](CO)[C@@H](O)[C@H](O)[C@H]1O [methyl-α-D-glucopyranoside] + O
viscosity [mPa·s]
Details | m1 = 0.0397 | m1 = 0.06 | m1 = 0.08 | m1 = 0.0999 | m1 = 0.1191 | m1 = 0.1402 | m1 = 0.1599 | m1 = 0.1801
288.15 K | 1.159 | 1.172 | 1.183 | 1.194 | 1.206 | 1.218 | 1.23 | 1.241
298.15 K | 0.906 | 0.916 | 0.925 | 0.931 | 0.94 | 0.948 | 0.956 | 0.964
308.15 K | 0.732 | 0.739 | 0.745 | 0.751 | 0.757 | 0.764 | 0.77 | 0.777
318.15 K | 0.606 | 0.611 | 0.616 | 0.621 | 0.625 | 0.631 | 0.636 | 0.64

OC[C@@H](O)[C@H](O)[C@H](O)[C@@H](O)CO [dulcitol] + O
viscosity [mPa·s]
Details | m1 = 0.04 | m1 = 0.0603 | m1 = 0.0797 | m1 = 0.1002 | m1 = 0.1196 | m1 = 0.14 | m1 = 0.1597 | m1 = 0.1795
288.15 K | 1.161 | 1.172 | 1.183 | 1.191 | 1.202 | 1.213 | 1.221 | 1.229
298.15 K | 0.904 | 0.912 | 0.919 | 0.926 | 0.933 | 0.939 | 0.948 | 0.953
308.15 K | 0.73 | 0.736 | 0.741 | 0.746 | 0.751 | 0.756 | 0.761 | 0.766
318.15 K | 0.602 | 0.607 | 0.61 | 0.614 | 0.617 | 0.623 | 0.626 | 0.628

OC[C@H]1OC(O)C[C@@H](O)[C@@H]1O (stereo partly drawn) [2-deoxy-D-glucose] + O
viscosity [mPa·s]
Details | m1 = 0.04 | m1 = 0.06 | m1 = 0.0797 | m1 = 0.1001 | m1 = 0.1201 | m1 = 0.1399
288.15 K | 1.161 | 1.171 | 1.18 | 1.191 | 1.201 | 1.213
298.15 K | 0.907 | 0.913 | 0.919 | 0.928 | 0.936 | 0.945
308.15 K | 0.73 | 0.736 | 0.742 | 0.749 | 0.754 | 0.761
318.15 K | 0.605 | 0.609 | 0.615 | 0.619 | 0.624 | 0.629
